Measured values reported in PMC7946642, “Vacuolin-1 inhibits endosomal trafficking and metastasis via CapZβ” (Oncogene, 2021).

Molecular target: T1, CapZβ (Homo sapiens, UniProt P47756)
T1 construct: gene CAPZB; recombinant CapZβ
Assay: isothermal titration calorimetry
Assay type: binding
Details: biotinylated vacuolin-1 analogue; labelled compound

T1 sequence (P47756 2-272): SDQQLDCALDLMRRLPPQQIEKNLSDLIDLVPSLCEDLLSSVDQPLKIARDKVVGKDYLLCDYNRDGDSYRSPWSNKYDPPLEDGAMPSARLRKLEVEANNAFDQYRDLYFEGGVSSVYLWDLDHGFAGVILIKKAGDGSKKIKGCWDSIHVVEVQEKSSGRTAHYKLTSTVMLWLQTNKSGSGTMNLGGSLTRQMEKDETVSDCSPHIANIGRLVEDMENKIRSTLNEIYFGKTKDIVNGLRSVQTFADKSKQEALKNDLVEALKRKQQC

Substance: biotin-V1
- Kd: ~3.1 µM
